Measured values as given in a compilation of properties of binary mixtures (doi:10.1016/j.fluid.2020.112621).

Test: xn = mol fraction of the nth substance listed
Details: 101 kPa

CC(=O)O.CC(=O)[O-].CC[NH+](CC)CCO + CCCC[n+]1ccn(C)c1.COP(=O)([O-])OC
viscosity [mPa·s]
Details	x1 = 0.0748	x1 = 0.3316	x1 = 0.4263	x1 = 0.5275	x1 = 0.6343	x1 = 0.7493	x1 = 0.8567	x1 = 1
278.15 K	2020	–	363	–	329	314	310	340
283.15 K	1280.5	315	254.3	234.7	229	–	210	227
288.15 K	840	224.3	183.7	–	164	157.9	146.3	156.1
293.15 K	–	164.3	135.3	124	120.6	–	104.7	110.4
298.15 K	396	123.7	102.2	–	–	88	–	80.2
303.15 K	–	95.2	79	72.4	70.3	67.9	57.8	–
308.15 K	208	–	62.2	57	55.2	–	44.3	45.3
313.15 K	155.8	58.3	48.55	–	–	41.14	34.65	35.12
318.15 K	119.1	48.01	40.43	36.97	35.71	34.54	–	27.71
323.15 K	92.7	39.18	33.11	–	–	28.27	–	22.22
328.15 K	–	32.29	–	25.04	24.08	–	18.26	18.08
333.15 K	58.8	24.59	20.72	18.82	–	–	15.16	14.9
338.15 K	–	22.48	19.2	17.53	16.79	16.24	12.72	12.45
343.15 K	39.38	18.97	16.24	14.82	14.16	–	10.79	10.49
348.15 K	32.81	16.13	13.83	12.6	–	11.59	9.24	–
353.15 K	27.63	12.97	11.07	10.04	9.54	9.16	7.98	7.67
358.15 K	23.49	11.89	10.22	–	8.82	8.46	–	–
363.15 K	20.16	10.32	8.87	8.06	7.63	7.29	6.09	–
368.15 K	17.45	9.01	7.75	–	–	6.33	5.37	5.09
373.15 K	15.23	7.79	6.7	6.06	5.71	5.43	4.76	4.5
